In ChEMBL document CHEMBL5370677, “Emopamil-Binding Protein Inhibitors for Treating Multiple Sclerosis” (ACS Med Chem Lett, 2023):

target: 3-beta-hydroxysteroid-Delta(8),Delta(7)-isomerase (Homo sapiens, UniProt Q15125); assay: Inhibition of EBP derived from HEK293T cells using zymosterol-d5 as substrate preincubated for 30 mins followed by substrate addition measured after 4 hrs by LC-APCI MRM MS analysis; format: cell-based
Sequence (Q15125 whole entry): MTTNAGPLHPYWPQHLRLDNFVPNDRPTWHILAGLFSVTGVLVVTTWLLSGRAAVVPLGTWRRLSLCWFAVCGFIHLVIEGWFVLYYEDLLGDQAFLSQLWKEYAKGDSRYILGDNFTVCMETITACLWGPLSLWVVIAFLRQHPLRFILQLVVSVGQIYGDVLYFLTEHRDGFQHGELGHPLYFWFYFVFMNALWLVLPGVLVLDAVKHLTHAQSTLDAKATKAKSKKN

IC50, < 100 nM:
COc1nccc(S(=O)(=O)N2CCC3(CCC(N4CCOCC4)C3)CC2)c1F (stereo unspecified)
Cn1nc(C2CC2)cc1S(=O)(=O)N1CCC2(CC1)CC(NC1CCOCC1)C2
O=S(=O)(c1coc(C(F)(F)F)c1)N1CCC2(CCC(N3CC4(COC4)C3)C2)CC1 (stereo unspecified)
O=S(=O)(c1ccc2c(c1)OCCO2)N1CCC2(CCC(N3CC4(COC4)C3)C2)CC1 (stereo unspecified)
Cc1nc(C(F)(F)F)ncc1S(=O)(=O)N1CCC2(CC1)CC(N(C)C1CC3(COC3)C1)CO2 (stereo unspecified)
O=S(=O)(c1ccc(F)cc1)N1CCC2(CCC(N3CC4(COC4)C3)C2)CC1 (stereo unspecified)
